Read-outs that look alike come from different tables or passages of the source.
Biological target: PI3 K Alpha (Homo sapiens, UniProt P42336)
Experiment: PI3 kinase phosphorylation assays (homogenous solution phase, one step solid phase, ATP depletion/KinaseGlo)
Type: biochemical
Experimental: Compounds to be tested are dissolved in DMSO and directly distributed into 384-well flashplates at 1.25 μL per well. To start the reaction, 20 μL of 6 nM PI3 kinase are added into each well followed by 20 μL of 400 nM ATP containing a trace of radiolabeled ATP and 900 nM 1-alpha-phosphatidylinositol (PI). The plates are briefly centrifuged to remove any air gap. The reaction is performed for 15 minutes and then stopped by the addition of 20 μL of 100 mM EDTA. The stopped reaction is incubated overnight at RT to allow the lipid substrate to bind by hydrophobic interaction to the surface of the flashplate. The liquid in the wells is then washed away, and the labeled substrate is detected with scintillation counting.
This method is similar to Assay 1 except that the lipid substrate (1-alpha-phosphatidylinositol (PI)) is first dissolved in a coating buffer and incubated on flashplate at room temperature overnight to allow the lipid substrate to bind by hydrophobic interaction to the surface of the flashplate. Unbound substrate is then washed away. On the day of assay, 20 μL of 6 nM PI3 kinase are added into each well followed by 20 μL of 400 nM ATP containing trace of radiolabeled ATP. Compounds are added together with enzyme and ATP to the lipid-coated plates. The plates are briefly centrifuged to remove any air gap. The reaction is performed for two to three hours. The reaction is stopped by addition of 20 μL of 100 mM EDTA or by immediate plate washing. Phosphorylated lipid substrate is detected by scintillation counting.
Compounds to be tested are dissolved in DMSO and directly distributed into a black 384-well plate at 1.25 μL per well. To start the reaction, 25 μL of 10 nM PI3 kinase and 5 μg/mL 1-alpha-phosphatidylinositol (PI) are added into each well followed by 25 μL of 2 μM ATP. The reaction is performed until approx 50% of the ATP is depleted, and then stopped by the addition of 25 μL of KinaseGlo solution. The stopped reaction is incubated for 5 minutes and the remaining ATP is then detected via luminescence.

[1] = ATP depletion assay, read-out: PI3 K Alpha IC50

PI3 K Alpha, sequence (P42336 whole entry): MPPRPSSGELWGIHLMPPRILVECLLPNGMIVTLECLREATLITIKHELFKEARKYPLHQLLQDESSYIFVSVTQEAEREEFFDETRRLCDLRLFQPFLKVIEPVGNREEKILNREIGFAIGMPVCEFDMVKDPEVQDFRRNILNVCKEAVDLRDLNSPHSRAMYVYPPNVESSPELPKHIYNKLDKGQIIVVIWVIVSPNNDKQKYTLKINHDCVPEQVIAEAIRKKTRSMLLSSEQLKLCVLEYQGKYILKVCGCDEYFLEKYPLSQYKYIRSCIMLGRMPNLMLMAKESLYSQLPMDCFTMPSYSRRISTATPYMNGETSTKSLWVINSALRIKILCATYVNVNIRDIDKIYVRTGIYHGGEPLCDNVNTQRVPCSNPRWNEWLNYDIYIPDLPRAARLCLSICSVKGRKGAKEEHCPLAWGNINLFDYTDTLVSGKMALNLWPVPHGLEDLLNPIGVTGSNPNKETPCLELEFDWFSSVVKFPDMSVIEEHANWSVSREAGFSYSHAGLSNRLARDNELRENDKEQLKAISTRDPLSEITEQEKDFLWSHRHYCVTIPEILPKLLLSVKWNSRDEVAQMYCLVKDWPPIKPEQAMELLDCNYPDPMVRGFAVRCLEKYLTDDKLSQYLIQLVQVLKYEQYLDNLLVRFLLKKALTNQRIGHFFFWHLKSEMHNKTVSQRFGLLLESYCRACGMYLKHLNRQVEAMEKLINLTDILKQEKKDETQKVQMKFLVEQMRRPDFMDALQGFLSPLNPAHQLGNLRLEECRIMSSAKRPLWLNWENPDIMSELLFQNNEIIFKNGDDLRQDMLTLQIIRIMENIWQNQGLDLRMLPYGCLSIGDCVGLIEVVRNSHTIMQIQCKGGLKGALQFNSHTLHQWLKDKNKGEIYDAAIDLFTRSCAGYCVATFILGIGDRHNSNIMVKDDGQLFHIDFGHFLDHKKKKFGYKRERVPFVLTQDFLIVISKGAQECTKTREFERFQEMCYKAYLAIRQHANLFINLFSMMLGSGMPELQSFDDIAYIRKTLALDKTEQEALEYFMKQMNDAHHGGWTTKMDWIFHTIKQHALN
PI3 K Alpha, sequence (P27986 whole entry partner): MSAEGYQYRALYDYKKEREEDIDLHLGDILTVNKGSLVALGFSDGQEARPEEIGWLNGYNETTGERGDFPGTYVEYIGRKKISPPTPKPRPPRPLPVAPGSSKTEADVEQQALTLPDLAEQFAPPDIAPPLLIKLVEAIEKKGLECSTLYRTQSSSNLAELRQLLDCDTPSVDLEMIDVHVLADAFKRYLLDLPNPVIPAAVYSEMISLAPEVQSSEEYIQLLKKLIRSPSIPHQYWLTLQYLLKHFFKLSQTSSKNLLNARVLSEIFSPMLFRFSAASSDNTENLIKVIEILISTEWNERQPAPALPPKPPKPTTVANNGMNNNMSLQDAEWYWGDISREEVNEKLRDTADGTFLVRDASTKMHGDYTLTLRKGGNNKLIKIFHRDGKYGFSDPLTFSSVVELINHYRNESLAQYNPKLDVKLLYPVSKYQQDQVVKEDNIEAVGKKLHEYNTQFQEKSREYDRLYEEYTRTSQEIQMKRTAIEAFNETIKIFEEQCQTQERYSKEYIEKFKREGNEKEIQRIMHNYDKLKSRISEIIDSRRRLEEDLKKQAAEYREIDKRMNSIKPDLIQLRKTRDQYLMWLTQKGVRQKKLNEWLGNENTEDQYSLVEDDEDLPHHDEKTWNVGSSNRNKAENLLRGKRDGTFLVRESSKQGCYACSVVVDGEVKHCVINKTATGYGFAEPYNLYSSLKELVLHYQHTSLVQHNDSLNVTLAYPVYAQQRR

Structure (SMILES)	IC50 [1]	IC50 (read-out: PI3K Alpha IC50)
Nc1ccc(-c2ccc3nc(NC(=O)OCCN4CCCCC4)sc3c2)cn1 [Example 2-20, [6-(6-Amino-pyridin-3-yl)-benzothiazol-2-yl]-carbamic acid 2-piperidin-1-yl-ethyl ester]	< 1000 nM	–
Nc1cc(C(=O)Nc2nc3ccc(-c4cnc(N)c(C(F)(F)F)c4)cc3s2)ccn1 [Example 2-36, 2-amino-N-(6-(6-amino-5-(trifluoromethyl)pyridin-3-yl)benzo[d]thiazol-2-yl)isonicotinamide]	< 1000 nM	–
Nc1cccc(C(=O)Nc2nc3ccc(-c4cnc(N)c(C(F)(F)F)c4)cc3s2)n1 [Example 2-35, 6-amino-N-(6-(6-amino-5-(trifluoromethyl)pyridin-3-yl)benzo[d]thiazol-2-yl)picolinamide]	< 10000 nM	–
CC(=O)Nc1cn2cc(-c3cnc(N)cc3C(F)(F)F)ccc2n1 [Example 22, N-[6-(6-Amino-4-trifluoromethyl-pyridin-3-yl)-imidazo[1,2-a]pyridin-2-yl]-acetamide]	–	< 10000 nM
CC(=O)Nc1cn2c(-c3cnc(N)c(C(F)(F)F)c3)c(-c3cnc(N)c(C(F)(F)F)c3)ccc2n1 [Example 35, N-(5,6-bis(6-amino-5-(trifluoromethyl)pyridin-3-yl)imidazo[1,2-a]pyridin-2-yl)acetamide]	–	> 25000 nM
CC(=O)Nc1cn2cc(-c3cnc(N)c(O[C@@H](C)C(F)(F)F)n3)cc(F)c2n1 [Example 259, (S)-N-(6-(5-amino-6-(1,1,1-trifluoropropan-2-yloxy)pyrazin-2-yl)-8-fluoroimidazo [1,2-a]pyridin-2-yl)acetamide]	–	< 1000 nM
CC(=O)Nc1nc2ccc(-c3cnc(NC(C)=O)c(C(F)(F)F)c3)cc2s1 [Example 2-22, N-[6-(6-Acetylamino-5-trifluoromethyl-pyridin-3-yl)-bezothiazol-2-yl]-acetamide]	< 1000 nM	–
CC(=O)Nc1cn2cc(-c3cnc(N)nc3N)ccc2n1 [Example 48, N-(6-(2,4-diaminopyrimidin-5-yl)imidazo[1,2-a]pyridin-2-yl)acetamide]	–	< 10000 nM
Nc1ncc(-c2ccc3nc(NC(=O)N4CCC[C@H]4C(=O)O)cn3c2)cc1C(F)(F)F [Example 49, (S)-1-(6-(6-amino-5-(trifluoromethyl)pyridin-3-yl)imidazo[1,2-a]pyridin-2-ylcarbamoyl) pyrrolidine-2-carboxylic acid]	–	< 10000 nM
CC(=O)Nc1cn2nc(-c3cnc(N)c(-c4ccccc4Cl)c3)ccc2n1 [Example 260, N-(6-(6-amino-5-(2-chlorophenyl)pyridin-3-yl)imidazo[1,2-b]pyridazin-2-yl)acetamide]	–	< 1000 nM
CC(=O)Nc1nc2ccc(-c3ccc(NC4CCOCC4)nc3)cc2s1 [Example 2-17, N-{6-[6-(Tetrahydro-pyran-4-ylamino)-pyridin-3-yl]-benzothiazol-2-yl}-acetamide]	< 1000 nM	–
N#C/N=C(\N)NCCCC(=O)Nc1cn2nc(-c3cnc(N)c(C(F)(F)F)c3)ccc2n1 [Example 258, (E)-N-(6-(6-amino-5-(trifluoromethyl)pyridin-3-yl)imidazo[1,2-b]pyridazin-2-yl)-4-(2-cyanoguanidino) butanamide]	–	< 1000 nM
CC(=O)N1CCCC[C@@H]1C(=O)Nc1cn2cc(-c3cnc(N)c(C(F)(F)F)c3)ccc2n1 [Example 47, (R)-1-acetyl-N-(6-(6-amino-5-(trifluoromethyl)pyridin-3-yl)imidazo[1,2-a]pyridin-2-yl)piperidine-2-carboxamide]	–	< 10000 nM
CC(=O)Nc1cn2cc(-c3cnc(N)c(C(F)(F)F)c3)cc(C)c2n1 [Example 34, N-(6-(6-amino-5-(trifluoromethyl)pyridin-3-yl)-8-methylimidazo[1,2-a]pyridin-2-yl)acetamide]	–	> 25000 nM
CCN(CC)CCCc1c(NC(C)=O)nc2ccc(-c3cnc(N)c(C(F)(F)F)c3)cn12 [Example 17, N-[6-(6-Amino-5-trifluoromethyl-pyridin-3-yl)-3-(3-diethylamino-propyl)-imidazo[1,2-a]pyridin-2-yl]-acetamide]	–	< 10000 nM
CC(=O)Nc1cn2cc(-c3cnc(N)c(Oc4cccc(F)c4)n3)cc(F)c2n1 [Example 261, N-(6-(5-amino-6-(3-fluorophenoxy)pyrazin-2-yl)-8-fluoroimidazo [1,2-a]pyridin-2-yl)acetamide]	–	< 1000 nM
CC(=O)Nc1nc2ccc(-c3cnc(N)c(C(F)(F)F)c3)cn2c1C(C)=O [Example 20, N-[3-Acetyl-6-(6-amino-5-trifluoromethyl-pyridin-3-yl)-imidazo[1,2-a]pyridin-2-yl]-acetamide]	–	< 10000 nM
CC(=O)Nc1cn2cc(-c3cnc(N)c(OC(F)F)c3)ccc2n1 [Example 263, N-(6-(6-amino-5-(difluoromethoxy)pyridin-3-yl)imidazo[1,2-a]pyridin-2-yl)acetamide]	–	< 1000 nM
Nc1ncc(-c2ccc3nc(NC(=O)[C@H]4CCC(=O)O4)cn3c2)cc1C(F)(F)F [Example 264, (R)-N-(6-(6-amino-5-(trifluoromethyl)pyridin-3-yl)imidazo[1,2-a]pyridin-2-yl)-5-oxotetrahydro furan-2-carboxamide]	–	< 1000 nM
Nc1ncc(-c2ccc3nc(NC(=O)c4ccccc4C(=O)O)cn3c2)cc1C(F)(F)F [Example 50, 2-(6-(6-amino-5-(trifluoromethyl)pyridin-3-yl)imidazo[1,2-a]pyridin-2-ylcarbamoyl) benzoic acid]	–	< 10000 nM
CC(=O)Nc1cn2cc(-c3cnc(N)c(O[C@H](C)C(F)(F)F)n3)cc(F)c2n1 [Example 265, (R)-N-(6-(5-amino-6-(1,1,1-trifluoropropan-2-yloxy)pyrazin-2-yl)-8-fluoroimidazo [1,2-a]pyridin-2-yl)acetamide]	–	< 1000 nM
Nc1ncc(-c2ccc3nc(NC(=O)C4CCC(=O)N4)cn3c2)cc1C(F)(F)F (centres unmarked) [Example 262, N-(6-(6-amino-5-(trifluoromethyl)pyridin-3-yl)imidazo[1,2-a]pyridin-2-yl)-5-oxopyrrolidine-2-carboxamide]	–	< 1000 nM

Results, then the compound that gave them:

IC50 [1]	IC50 (read-out: PI3K Alpha IC50)	Structure (SMILES)
–	< 1000 nM	Nc1ncc(-c2ccc3nc(NC(=O)N4CCCC4c4nccs4)cn3c2)cc1C(F)(F)F (centres unmarked) [Example 275, N-(6-(6-amino-5-(trifluoromethyl)pyridin-3-yl)imidazo[1,2-a]pyridin-2-yl)-2-(thiazol-2-yl)pyrrolidine-1-carboxamide]
–	< 1000 nM	Nc1ncc(-c2ccc3nc(NC(=O)N4CCCC4c4ccco4)cn3c2)cc1C(F)(F)F (centres unmarked) [Example 274, N-(6-(6-amino-5-(trifluoromethyl)pyridin-3-yl)imidazo[1,2-a]pyridin-2-yl)-2-(furan-2-yl)pyrrolidine-1-carboxamide]
–	< 1000 nM	COc1ccccc1C1CCCN1C(=O)Nc1cn2cc(-c3cnc(N)c(C(F)(F)F)c3)ccc2n1 (centres unmarked) [Example 277, N-(6-(6-amino-5-(trifluoromethyl)pyridin-3-yl)imidazo[1,2-a]pyridin-2-yl)-2-(2-methoxyphenyl) pyrrolidine-1-carboxamide]
–	< 1000 nM	Nc1ncc(-c2ccc3nc(NC(=O)[C@@H]4CCC(=O)O4)cn3c2)cc1C(F)(F)F [Example 268]
–	< 1000 nM	Nc1ncc(-c2ccc3nc(NC(=O)[C@@H](O)CCC(=O)O)cn3c2)cc1C(F)(F)F [Example 272, (S)-5-(6-(6-amino-5-(trifluoromethyl)pyridin-3-yl)imidazo[1,2-a]pyridin-2-ylamino)-4-hydroxy-5-oxopentanoic acid]
–	< 1000 nM	CC(=O)Nc1cn2cc(-c3cnc(N)c(S(=O)(=O)N4CCC(Oc5ccc(F)cc5)CC4)c3)ccc2n1 [Example 267, N-(6-(6-amino-5-(4-(4-fluorophenoxy)piperidin-1-ylsulfonyl)pyridin-3-yl)imidazo[1,2-a]pyridin-2-yl)acetamide]
–	< 1000 nM	Nc1ncc(-c2ccc3nc(NC(=O)N4CCCC4Cc4ccccn4)cn3c2)cc1C(F)(F)F (centres unmarked) [Example 273, N-(6-(6-amino-5-(trifluoromethyl)pyridin-3-yl)imidazo[1,2-a]pyridin-2-yl)-2-(pyridin-2-ylmethyl) pyrrolidine-1-carboxamide]
–	< 1000 nM	COc1ccc(C2CCCN2C(=O)Nc2cn3cc(-c4cnc(N)c(C(F)(F)F)c4)ccc3n2)cc1OC (centres unmarked) [Example 276, N-(6-(6-amino-5-(trifluoromethyl)pyridin-3-yl)imidazo[1,2-a]pyridin-2-yl)-2-(3,4-dimethoxyphenyl) pyrrolidine-1-carboxamide]
–	< 1000 nM	Nc1ncc(-c2ccc3nc(NC(=O)C4CCC(=O)NC4)cn3c2)cc1C(F)(F)F (centres unmarked) [Example 270, N-(6-(6-amino-5-(trifluoromethyl)pyridin-3-yl)imidazo[1,2-a]pyridin-2-yl)-6-oxopiperidine-3-carboxamide]
–	< 1000 nM	Nc1ncc(-c2ccc3nc(NC(=O)c4cccc(-c5nn[nH]n5)c4)cn3c2)cc1C(F)(F)F [Example 269, N-(6-(6-amino-5-(trifluoromethyl)pyridin-3-yl)imidazo[1,2-a]pyridin-2-yl)-3-(2H-tetrazol-5-yl)benzamide]

From patent US20100075965A1, “PI3 KINASE INHIBITORS AND METHODS OF THEIR USE” (Novartis AG, priority 2006, published 2010)
